Experimental data as given in patent US20230391841A1, “MACROCYCLIC PEPTIDES” (Herantis Pharma OYJ, priority 2019, published 2023).
Bridge positions count the residues as written; N and C are the ends. Peptide text beside a SMILES is read from it.

Experiments:
[1] = tested on: rat hepatocytes; test: In vitro metabolic stability in rat hepatocytes; assay type: in vitro ADME; details: 1 μM, 37° C., up to 60 min
Protocol: The linear or macrocyclic compounds 1-14 and 23-26 (SEQ ID NOs: […]) were incubated in concentration 1 μM with pooled cryopreserved rat hepatocytes (Sprague-Dawley, male; 400 pl, 1.0 million viable cells/ml for compounds 1-8, 11-12 and 23-26 or 100 μl, 0.1 million viable cells/ml for compounds 9-10 and 13-14) for different time points (0, 10, 20, 40 or 60 min) at 37° C. The cell density and viability were determined by trypan blue exclusion method. The incubation was terminated by acetonitrile. The collected samples were centrifuged for 20 min at 2272×g and analyzed. The samples were analyzed is by UHPLC/PDA with high resolution mass spectrometry (QE-Orbitrap-MS on DDI mode) (compounds 1-8, 11-12 and 23-26) or HHPLC-ToF mass spectrometry (for compounds 9-and 13-14) to monitor disappearance of the compound. Verapramil 1 μM was used as a disappearance rate control. The analytical method was optimized by using the parent compounds for optimum chromatographic properties (peak shape and retention) and mass spectrometric ionization. The Ion chromatograms were extracted from the total ion chromatograms using calculated monoisotopic accurate masses with 5 mDa window. Disappearance was based on LC/MS peak areas, marking 0 min as 100%. The first-order rate constants k (min-1) of the metabolism were obtained from the slope of time versus logarithm (% of remaining compound) plot using Excel software. The in vitro half-life (t1/2) of study compound is defined as: t1/2In2/k. Calculated half-life is based on compound disappearance in rat liver hepatocytes.

[2] = tested on: dopaminergic TH-positive neurons injured with MPP+; test: Neuroprotective effect on dopaminergic TH-positive neurons injured with MPP+ (primary mesencephalic culture); assay type: cell-based, rat; details: MPP+ injured TH-positive neurons
Protocol: Neuroprotective effects of compounds 1-26 (SEQ ID NO: 1-26) were tested in an in vitro model in which primary cultures of rat embryonic mesencephalic neurons were stressed with MPP+ , the active metabolite of neurotoxin 1-methyl-4-phenyl-1,2,3,6-tetrahydropyridine (MPTP). MPP+ kills dopaminergic (TH-positive) neurons via a variety of toxic mechanisms, including mitochondrial dysfunction, generation of peroxynitrite, oxidative stress, ER stress and induction of apoptosis.
Culture of mesencephalic neurons. Rat dopaminergic neurons were cultured as described by Visanji et al., 2008. Briefly, the midbrains obtained from 15-day-old rat embryos (Janvier, France) were dissected, and the ventral portion of the mesencephalic flexure, a region of the developing brain rich in dopaminergic neurons, was used for the cell preparations. The midbrain cells were dissociated by trypsinization for 20 min at 37° C. (solution at a final concentration of 0.05% trypsin and 0.02% EDTA). The reaction was stopped by adding Dulbecco's modified Eagle's medium (DMEM) containing DNAase I grade II (0.5 mg/mL) and 10% of fetal calf serum (FCS). Cells were then mechanically dissociated by 3 passages through a 10 ml pipette. Cells were then centrifuged at 180×g for 10 min at +4° C. on a layer of BSA (3.5%) in L15 medium. The cell pellets were re-suspended in a defined culture serum-free medium consisting of Neurobasal (Invitrogen) supplemented with B27 (2%), L-glutamine (2 mM) and 2% of PS solution and 1Ong/ml of Brain-derived neurotrophic factor (BDNF) and 1 ng/mL of Glial-Derived Neurotrophic Factor (GDNF). Viable cells were counted in a Neubauer cytometer using the trypan blue exclusion test. The cells were seeded at a density of 40 000 cells/well in 96 well-plates (pre-coated with poly-L-lysine) and maintained in a humidified incubator at 37° C. in 5% CO2/95% air atmosphere. Half of the medium was changed every 2 days with fresh medium. On 96-wells plates, only 60 wells are used. To avoid any edge effect, the first and last lines and columns were not used for culture and were filled with sterile water.
CDNF as well as linear and macrocyclic compounds […] (SEQ ID NOs: 1-26) were tested. On day 6 of culture, the compounds were dissolved in culture medium and then pre-is incubated with mesencephalic neurons for 4 hours before the MPP+ application. Four hours after the preincubation of the compounds, MPP+ was added to a final concentration of 4 pM, diluted in control medium still in presence of compounds for 48 h.
48 h after intoxication, the cells were fixed by a solution of 4% paraformaldehyde in PBS, pH 7.3 for 20 min at room temperature. The cells were washed twice in PBS, and then permeabilized and non-specific sites were blocked with a solution of PBS containing 0.1% of saponin and 1% FCS for 15 min at room temperature. Next, the cells were incubated with (a) a monoclonal antibody anti-Tyrosine Hydroxylase (TH) produced in mouse at dilution of 1:10000 and with (b) a polyclonal antibody anti-alpha-synuclein (α-syn) antibody produced in rabbit at dilution of 1:400 in PBS containing 1% FCS, 0.1% saponin, for 2 h at room temperature.
48 h after intoxication, the cell culture supernatant was removed, and the cells fixed by a solution of 4% paraformaldehyde in PBS, pH 7.3 for 20 min at room temperature. The cells were washed twice in PBS, and then permeabilized and non-specific sites were blocked with a solution of PBS containing 0.1% of saponin and 1% FCS for 15 min at room temperature. Then, the cells were incubated with a) a monoclonal Anti-Tyrosine Hydroxylase (TH) antibody produced in mouse at dilution of 1:10000 in PBS containing 1% FCS, 0.1% saponin, for 2 hours at room temperature, and b) a polyclonal anti-postsynaptic density protein-95 (PSD-95) antibody produced in rabbit at dilution of 1:200 in PBS containing 1% FCS, 0.1% saponin, for 2 h at room temperature. This antibody stains specifically synapses. […]

[3] = tested on: human hepatocytes; test: In vitro metabolic stability in human hepatocytes; assay type: in vitro ADME; details: 1 μM, 37° C., up to 60 min
Protocol: The linear or macrocyclic compounds 1-8, 11-14 and 23-26 (SEQ ID NOs: 1-8, 11-14 and 23-26) were incubated in concentration 1 μM with pooled cryopreserved human hepatocytes (mixed gender; 400 pl, 1.0 million viable cells/ml) for different time points (0, 20, 40 or 60 min) at 37° C. The cell density and viability were determined by trypan blue is exclusion method. The incubation was terminated by acetonitrile. The collected samples were centrifuged for 20 min at 2272×g and analyzed. The samples were analyzed by UPLC/PDA with high resolution mass spectrometry (QE-Orbitrap-MS on DDI mode) to monitor disappearance of the compound. Verapramil 1 μM was used as a disappearance rate control. The analytical method was optimized by using the parent compounds for optimum chromatographic properties (peak shape and retention) and mass spectrometric ionization. The Ion chromatograms were extracted from the total ion chromatograms using calculated monoisotopic accurate masses with 5 mDa window. Disappearance was based on LC/MS peak areas, marking 0 min as 100%. The first-order rate constants k (min-1) of the metabolism were obtained from the slope of time versus logarithm (% of remaining compound) plot using Excel software. The in vitro half-life (t1/2) of study compound is defined as: t1/2In2/k. Calculated half-life is based on compound disappearance in human liver hepatocytes.

Row | SMILES | stability in rat hepatocytes as compared to linear counterpart [1] | potency of macrocyclic peptide versus its linear counterpart [2] | stability in human hepatocytes as compared to linear counterpart [3]
1 | CC[C@H](C)[C@@H]1NC(=O)[C@H](CCC(N)=O)NC(=O)[C@H](CCCCN)NC(=O)[C@H](CC(C)C)NC(=O)[C@H](CCC(=O)O)NC(=O)[C@H](C)NC(=O)[C@H](C(C)C)NC(=O)[C@H](CCCNC(=N)N)NC(=O)[C@H](CCSC)NC(=O)[C@H](CCCCN)NC(=O)[C@H](CCC(=O)O)NC(=O)[C@H](C)NC(=O)[C@@H]2CSSC[C@H](NC(=O)[C@H](CCC(=O)O)NC(=O)[C@H](CCC(=O)O)NC(=O)CNC(=O)[C@H](Cc3c[nH]c4ccccc34)NC(=O)[C@H](CO)NC(=O)[C@H](Cc3c[nH]cn3)NC(=O)[C@H](CC(C)C)NC1=O)C(=O)N[C@@H](CCCNC(=N)N)C(=O)N[C@@H](C)C(=O)N2 [Compound 6] (cyclo(ACAEKMRVAELKQILHSWGEECR); disulfide 2-22) | significantly improved stability | comparable | significantly improved stability
2 | CC[C@H](C)[C@@H]1NC(=O)[C@H](CCCCN)NC(=O)[C@H](CCCCN)NC(=O)[C@H](CC(C)C)NC(=O)[C@H](CCC(=O)O)NC(=O)[C@H](CCCCN)NC(=O)[C@H](C(C)C)NC(=O)[C@H](CCCNC(=N)N)NC(=O)[C@H](CC(C)C)NC(=O)[C@H](CCCCN)NC(=O)[C@H](CCC(=O)O)NC(=O)[C@H](C)NC(=O)[C@@H]2CSSC[C@H](NC(=O)[C@H]([C@@H](C)O)NC(=O)[C@H](CCC(=O)O)NC(=O)CNC(=O)[C@H](Cc3c[nH]c4ccccc34)NC(=O)[C@H](CC(=O)O)NC(=O)[C@H](CC(=O)O)NC(=O)[C@H](CC(C)C)NC1=O)C(=O)N[C@@H](CCCCN)C(=O)NCC(=O)N2 [Compound 8] (cyclo(AEKLRVKELKKILDDWGETCKGC); disulfide 20-23) | significantly improved stability | comparable | 
3 | C[C@@H]1NC(=O)[C@@H]2CSSC[C@H](NC(=O)[C@H](CCC(=O)O)NC(=O)[C@H](CCC(=O)O)NC(=O)CNC(=O)[C@H](Cc3c[nH]c4ccccc34)NC(=O)[C@H]([C@@H](C)O)NC(=O)[C@H](CCCCN)NC(=O)[C@H](CCC(=O)O)NC1=O)C(=O)N[C@@H](CCCNC(=N)N)C(=O)N[C@@H](C)C(=O)N2 [Compound 12, WGEECRACAEKT] (cyclo(ACAEKTWGEECR); disulfide 2-11) | significantly improved stability | comparable | significantly improved stability
4 | CC[C@H](C)[C@@H]1NC(=O)[C@H](CO)NC(=O)[C@H](CCCCN)NC(=O)[C@H](CCC(=O)O)NC(=O)[C@H](C)NC(=O)[C@@H]2CSSC[C@H](NC(=O)[C@H]([C@@H](C)O)NC(=O)[C@H](CCC(=O)O)NC(=O)CNC(=O)[C@H](Cc3c[nH]c4ccccc34)NC(=O)[C@H](CC(=O)O)NC(=O)[C@H](CC(=O)O)NC(=O)[C@H](CC(C)C)NC1=O)C(=O)N[C@@H](CCCCN)C(=O)NCC(=O)N2 [Compound 10, KSILDDWGETCKGCAE] (cyclo(AEKSILDDWGETCKGC); disulfide 13-16) | significantly improved stability | comparable | 
5 | C[C@@H]1NC(=O)CNC(=O)[C@H](CCCNC(=N)N)NC(=O)[C@@H]2CSSC[C@H](NC1=O)C(=O)N[C@@H](C)C(=O)N[C@@H](CCC(=O)O)C(=O)N[C@@H](CCCCN)C(=O)N[C@@H]([C@@H](C)O)C(=O)N[C@@H](Cc1c[nH]c3ccccc13)C(=O)NCC(=O)N[C@@H](CCC(=O)O)C(=O)N[C@@H](CCC(=O)O)C(=O)N2 [Compound 24, WGEECRGACAEKT] (cyclo(ACAEKTWGEECRG); disulfide 2-11) | significantly improved stability | comparable | significantly improved stability
6 | C[C@@H]1NC(=O)[C@@H]2CSSC[C@H](NC(=O)[C@H]([C@@H](C)O)NC(=O)[C@H](CCC(=O)O)NC(=O)CNC(=O)[C@H](Cc3c[nH]c4ccccc34)NC(=O)[C@H](CO)NC(=O)[C@H](CCCCN)NC(=O)[C@H](CCC(=O)O)NC1=O)C(=O)N[C@@H](CCCCN)C(=O)NCC(=O)N2 [Compound 14, WGETCKGCAEKS] (cyclo(AEKSWGETCKGC); disulfide 9-12) | significantly improved stability | comparable | significantly improved stability
7 | CC[C@H](C)[C@@H]1NC(=O)[C@H](CCC(N)=O)NC(=O)[C@H](CCCCN)NC(=O)[C@H](CC(C)C)NC(=O)[C@H](CCC(=O)O)NC(=O)[C@H](C)NC(=O)[C@H](C(C)C)NC(=O)[C@H](CCCNC(=N)N)NC(=O)[C@H](CCSC)NC(=O)[C@H](CCCCN)NC(=O)[C@H](CCCNC(=N)N)NC(=O)[C@H](CC(C)C)NC(=O)[C@H](CC(=O)O)NC(=O)[C@H](C(C)C)NC(=O)[C@H](CCC(=O)O)NC(=O)[C@H](C)NC(=O)[C@@H]2CSSC[C@H](NC(=O)[C@H](CCC(=O)O)NC(=O)[C@H](CCC(=O)O)NC(=O)CNC(=O)[C@H](Cc3c[nH]c4ccccc34)NC(=O)[C@H](CO)NC(=O)[C@H](Cc3c[nH]cn3)NC(=O)[C@H](CC(C)C)NC1=O)C(=O)N[C@@H](CCCNC(=N)N)C(=O)N[C@@H](C)C(=O)N2 [Compound 2] (cyclo(ACAEVDLRKMRVAELKQILHSWGEECR); disulfide 2-26) | significantly improved stability | comparable | significantly improved stability
